Consider nine sequences from publication PMC6675551, “Mass spectrometry–driven exploration reveals nuances of neoepitope-driven tumor rejection” (JCI Insight, 2019).

The test system of assay [1] is Meth A fibrosarcoma tumor cells. Kind of assay: Tumor rejection after immunization with neoepitope-pulsed BMDCs and Meth A challenge. As to conditions: for Tumor rejection activity (in words): immunized twice 1 week apart with neoepitope-pulsed BMDCs (3 × 10^6), challenge with 95,000 Meth A cells 1 week later, CTLA4 blockade except TGAARFDEF
Type of assay: in vivo, BALB/cJ mice. The source says: The 8 MS-defined neoepitopes were used to immunize naive BALB/cJ mice twice, 1 week apart, with neoepitope-pulsed bone marrow–derived dendritic cells (BMDCs, 3 × 10^6) as adjuvants, as previously published ([22]). All mice were challenged with 95,000 Meth A tumor cells 1 week after the second immunization, and tumor growth was monitored in individual mice (Figure 2, A and B). […] The TCI score parameterizes the tumor rejection, tumor inhibition, and tumor stability scores to produce a total TCI score, which reflects the control of the tumor growth in each group.
Day 7 BMDCs were pulsed with 40 μg of the neoepitope (1 μL of a 20 mM neoepitope solution was added to 7.5 million BMDCs in 200 μL RPMI medium for final peptide concentration of 100 μM). The pulsed BMDCs were washed 4 times and used to immunize a single mouse. Mice were randomized before being used for immunization with individual peptides to control for any cage effects. All immunizations were performed in the presence of CTLA4 blockade, using the […] (clone 9D9, Bio X Cell), administered with the second immunization and every 3 days after tumor challenge except for peptide TGAARFDEF. Tumor diameters were measured in 2 dimensions and the average diameter determined.
TCI quantitates and integrates all 3 aspects of tumor growth: inhibition, period of tumor size stability, and tumor shrinkage (complete response), as published previously ([23]).

Assay [2] concerns tetramer+ CD8+ T cells. Briefly: Tetramer staining of CD8+ T cells in non-immunized tumor-bearing mice. The format is in vivo, BALB/cJ mice. To be noted: unimmunized Meth A tumor-bearing mice, blood and spleen. Here is the method: Thus, of the 7 neoepitopes tested, 4 neoepitopes elicited expansion of tetramer^+ CD8^+ T cells on immunization of naive, non–tumor-bearing mice (Figure 2E). We now examined CD8^+ T cell responses to the 4 neoepitopes in unimmunized, tumor-bearing mice (Figure 2F). […] As controls, CD8 cells from mice bearing an antigenically irrelevant tumor (4T1) were tested for tetramer response to all 7 neoepitopes; no response was detected. Altogether, CD8^+ T cell responses in non-immunized tumor-bearing mice and immunized tumor-naive mice were often discordant.
(§1) The antibody specific for Fixable Viability Dye eFluor 780 was purchased from eBioscience. PE tetramer specific for each neoepitope was synthesized, validated, and tested by MBL International Corporation. Tetramer testing was performed prior to product release according to standard operating procedures of MBL, and the tetramers were further tested for specificity in our laboratory. The FITC-labeled antibody specific for CD8 (clone KT15) was purchased from the same company. BV510 CD3 (clone 17A2) was purchased from Biolegend. Mouse FcR blocking reagent was purchased from Miltenyi Biotec. Flow cytometry was performed using Miltenyi Biotec MACSQuant analyzer. The analysis was done using FlowJo software (FlowJo LLC).

The subject of assay [3] is tetramer+ CD8+ T cells. Briefly: Tetramer staining of CD8+ T cells in immunized naive non-tumor-bearing mice. To be noted: for CD8+ T cell response by tetramer staining (in words): immunized naive, non-tumor-bearing mice; for Tetramer+ cells of total CD8+ T cells, blood: blood harvested 1 week after second immunization. The format is in vivo, BALB/cJ mice. Here is the method:
In parallel, naive, non–tumor-bearing mice immunized with the neoepitopes were tested for CD8^+ T cell responses to 7 of the 8 neoepitopes. ELISpot assays could not be performed because of the high background generated by incubation of T cells with any DCs. […] Tetramer staining was therefore used for better sensitivity and specificity (Figure 2D). (Tetramers against the neoepitope MAPVRTASM derived from Aebp1 gene could not be made.) Blood and the spleen of the immunized mice were harvested 1 week after the second immunization and stained for CD3, CD8, as well as specific binding to neoepitope tetramers (Figure 2, D and E). Of the 2 neoepitopes able to strongly elicit tumor rejection (TGAARFDEF and AYMKMLSSSL), only TGAARFDEF elicited a measurable CD8^+ T cell response as detected by tetramer staining. […] Of these, the response elicited by VGPEILSSL (derived from Trib3) was the strongest CD8^+ T cell response among all neoepitopes; approximately 10% of the CD8^+ T cells (in blood) in mice immunized with it were tetramer^+. As controls, we measured, in 2 instances, tetramer response in mice immunized with an irrelevant neoepitope; such nonspecific response was never detected.
as §1

The next assay deals with IFN-γ+ CD8+ cells. Briefly: IFN-γ+ CD8+ cells from mice immunized with individual peptides. To be noted: data not shown. Type of assay: in vivo, BALB/cJ mice.
The subject of assay [4] is Meth A fibrosarcoma tumor cells. Kind of assay: CD8 depletion in vivo during priming of neoepitope-immunized mice. As to conditions: 250 μg anti-CD8 depleting antibody or isotype control 6 days before first immunization (priming phase). Also noted: species or system BALB/cJ mice. Here is the method: CD8 dependence of neoepitope-elicited tumor immunity was tested in the case of the peptide TGAARFDEF (derived from Gtf2b) by depletion of neoepitope-immunized mice by anti-CD8 depleting antibody or an isotype control antibody during the priming phase alone, as described in the Methods. […] The kinetics of recovery of the depleted CD8^+ cells in mice is not uniform, resulting in lack of abrogation of immunity in 2 of the 5 mice. Because depletion of CD4^+ T cells results in depletion of helper as well as regulatory CD4^+ T cells, and the 2 effects are contradictory, depletion of CD4^+ cells was not attempted.
BALB/cJ mice were injected with 250 μg of isotype control (InVivoMAb rat IgG2b isotype control, Bio X Cell) or CD8-depleting antibody (InVivoMAb anti–mouse CD8α, rat IgG2b, clone 2.43, Bio X Cell) antibodies 6 days before the first immunization (priming phase). The CD8^+ cells remained completely depleted in all mice until day 6; after that the recovery was variable.

[5] abbreviates: neoepitope-pulsed BMDC immunization, 95,000 Meth A cells challenge.

For the sequence KYLQVASHV, the “Tumor rejection activity (in words)” value in assay [1] was “inactive”.

Regarding SYLLGSGEARL, the “Immunized mice able to reject the tumor completely” value in assay [1] (setting [5]) is “about 50%”.

For IGPRALDVL, the “CD8+ T cell response by tetramer staining (in words)” value (from here on “CD8+ T cell response … (in words)”) is recorded as “significant CD8^+ T cell response” in the assay on tetramer+ CD8+ T cells [2] and “good tetramer CD8^+ T cell response” with tetramer+ CD8+ T cells [3]. The “Tumor rejection activity (in words)” value in assay [1] is on record as “intermediate tumor rejection”.

Consider AYMKMLSSSL, for which, in assay [1] (setting [5]), the “Immunized mice able to reject the tumor completely” value was 60% and the “Immunized mice with relatively prolonged tumor stabilization” value was determined as 30%. Moreover, in the assay on tetramer+ CD8+ T cells [3], the “CD8+ T cell response … (in words)” value is reported as “did not elicit a measurable CD8^+ response”.

As for YIRPFETKVK, the “Tumor Rejection Score (max score = 5)” value in assay [1] (BALB/cJ mice immunized with peptide-pulsed BMDCs, Meth A challenge, Table 2) worked out at 4.5.

As for VGPEILSSL, the “CD8+ T cell response … (in words)” value in the assay with tetramer+ CD8+ T cells [2] is “significant CD8^+ T cell response”. The “Tumor rejection activity (in words)” value in assay [1] is reported as “no tumor rejection”. Besides, the “Tetramer+ cells of total CD8+ T cells, blood” value with tetramer+ CD8+ T cells [3] (immunized naive mice) is reported as “approximately 10%”.

Regarding IGPRAVDVL [reference compound], the “Tumor rejection activity (in words)” value in assay [1] was “intermediate tumor rejection activity”. Moreover, in the assay on tetramer+ CD8+ T cells [3] (immunized naive mice, 1 week after second immunization), the “Tetramer+ cells (CD8+ T cell response), tissue not stated” value is recorded as ~ 0.35%.

Turning to TGAARFDEF, the “CD8+ T cell response … (in words)” value in the assay on tetramer+ CD8+ T cells [2] is given as “could not detect a measurable CD8^+ T cell response”. Besides, the “IFN-γ+ CD8+ cell response” value in the assay with IFN-γ+ CD8+ cells is “a specific response was detected”. In addition, the “Tumor rejection activity (in words)” value in assay [1] is “complete tumor rejection”. Besides, in assay [4], the “CD8 dependence of neoepitope-elicited tumor immunity” value is “completely abolished the neoepitope-elicited tumor rejection in 3 of the 5 mice”. Also, the “Tetramer+ cells of total CD8+ T cells, blood” value in the assay with tetramer+ CD8+ T cells [3] (immunized naive mice) is “approximately 0.7%”. Further, the “Tetramer+ cells of total CD8+ T cells, spleen” value with tetramer+ CD8+ T cells [3] (immunized naive mice, spleen harvested 1 week after second immunization) was around 0.43%.

KYLQVASHVGL: the figures for the “CD8+ T cell response … (in words)” value in the assay on tetramer+ CD8+ T cells [2] and with tetramer+ CD8+ T cells [3] were “did not elicit such a response” and “strong CD8^+ T cell response”, respectively. Moreover, the “Tumor rejection activity (in words)” value in assay [1] is “did not elicit tumor rejection”.
